Measurements from ChEMBL document CHEMBL1130228, “Potent and selective 1,2,3-trisubstituted indole NPY Y-1 antagonists” (J Med Chem, 1997).

Columns and labels:
[1] = molecular target: T1, Neuropeptide Y receptor type 5 (Homo sapiens, UniProt Q15761); experiment: Affinity for human Neuropeptide Y receptor type 5
T1 sequence (Q15761 whole entry): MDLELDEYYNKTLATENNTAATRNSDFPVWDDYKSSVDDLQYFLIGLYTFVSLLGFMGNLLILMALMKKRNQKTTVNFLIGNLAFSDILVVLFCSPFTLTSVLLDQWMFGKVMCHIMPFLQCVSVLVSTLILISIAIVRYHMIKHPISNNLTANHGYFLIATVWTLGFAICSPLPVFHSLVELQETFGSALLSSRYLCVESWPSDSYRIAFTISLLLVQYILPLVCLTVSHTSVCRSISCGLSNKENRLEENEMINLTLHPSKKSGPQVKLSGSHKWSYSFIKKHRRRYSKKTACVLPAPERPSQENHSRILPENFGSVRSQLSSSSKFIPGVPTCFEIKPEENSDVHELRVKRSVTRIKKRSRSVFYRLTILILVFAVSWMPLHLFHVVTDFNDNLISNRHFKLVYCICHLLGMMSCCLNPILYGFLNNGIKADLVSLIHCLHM

[2] = molecular target: T2, Neuropeptide Y receptor type 2 (Homo sapiens, UniProt P49146); experiment: Affinity for human Neuropeptide Y receptor type 2
T2 sequence (P49146 whole entry): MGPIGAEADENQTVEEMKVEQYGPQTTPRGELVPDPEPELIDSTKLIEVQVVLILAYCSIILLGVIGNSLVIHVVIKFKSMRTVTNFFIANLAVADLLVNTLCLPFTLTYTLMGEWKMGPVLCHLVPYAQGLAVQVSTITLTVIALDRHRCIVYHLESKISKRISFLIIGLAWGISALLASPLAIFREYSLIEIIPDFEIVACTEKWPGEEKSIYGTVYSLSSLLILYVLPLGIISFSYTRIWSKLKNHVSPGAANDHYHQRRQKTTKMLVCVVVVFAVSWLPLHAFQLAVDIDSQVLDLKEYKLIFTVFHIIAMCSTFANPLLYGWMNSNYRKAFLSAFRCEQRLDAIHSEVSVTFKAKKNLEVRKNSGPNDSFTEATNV

[3] = molecular target: T3, Neuropeptide Y receptor type 1 (Homo sapiens, UniProt P25929); experiment: Binding affinity for Neuropeptide Y receptor type 1 expressed in AV-12 cells; type: cell-based, AV12
T3 sequence (P25929 whole entry): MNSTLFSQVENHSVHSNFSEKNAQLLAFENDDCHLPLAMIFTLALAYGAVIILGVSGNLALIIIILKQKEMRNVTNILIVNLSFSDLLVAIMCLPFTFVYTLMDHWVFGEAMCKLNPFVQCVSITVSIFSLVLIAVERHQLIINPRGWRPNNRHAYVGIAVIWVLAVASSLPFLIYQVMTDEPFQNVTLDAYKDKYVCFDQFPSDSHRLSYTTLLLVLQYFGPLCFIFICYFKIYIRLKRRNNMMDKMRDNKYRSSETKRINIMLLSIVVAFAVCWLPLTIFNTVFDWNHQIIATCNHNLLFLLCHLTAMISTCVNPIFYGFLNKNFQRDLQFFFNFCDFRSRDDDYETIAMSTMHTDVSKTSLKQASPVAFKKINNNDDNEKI

[4] = molecular target: Neuropeptide Y receptor type 4 (Homo sapiens, UniProt P50391); experiment: Affinity for human Neuropeptide Y receptor type 4
Sequence of Neuropeptide Y receptor type 4 (P50391 whole entry): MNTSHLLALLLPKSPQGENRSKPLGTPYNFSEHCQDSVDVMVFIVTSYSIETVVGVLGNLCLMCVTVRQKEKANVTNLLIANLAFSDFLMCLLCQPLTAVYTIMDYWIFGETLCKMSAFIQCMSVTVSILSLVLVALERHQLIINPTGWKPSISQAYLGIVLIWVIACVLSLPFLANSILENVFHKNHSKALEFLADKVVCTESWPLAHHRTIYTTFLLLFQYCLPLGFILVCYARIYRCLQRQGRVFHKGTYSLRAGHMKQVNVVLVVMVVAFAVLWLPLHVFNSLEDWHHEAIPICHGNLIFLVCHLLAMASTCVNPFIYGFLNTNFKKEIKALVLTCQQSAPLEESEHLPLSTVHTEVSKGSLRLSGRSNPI

[5] = molecular target: T3, Neuropeptide Y receptor type 1; experiment: Ability to reverse Neuropeptide Y receptor type 1-induced inhibition of forskolin-induced inhibition of forskolin-stimulated cAMP; type: functional
Mus musculus = experiment: Ability to block increase in food consumption elicited by NPY (230 pmol, icv) into lateral ventricle of mice; type: functional
SK-N-MC = experiment: Ability to reverse NPY-induced intracellular [Ca2+] mobilization in SK-N-MC cells; type: functional, cell-based, Homo sapiens

| Ki [1] [µM] | Ki [2] [µM] | Ki [3] [nM] | Ki [4] [µM] | Structure (SMILES) | Ki [5] [nM] | ED50 (Mus musculus) [nM] | Ki (SK-N-MC) [nM] |
| --- | --- | --- | --- | --- | --- | --- | --- |
| > 10 | > 10 | 98 | > 10 | Clc1ccc(OCc2c(CN3CCC(N4CCCCC4)CC3)c3ccccc3n2CCN2CCCCC2)cc1 | – | – | – |
| > 10 | > 10 | 26 | > 10 | Cn1c(COc2ccc(Cl)cc2)c(C(=O)CN2CCC(N3CCCCC3)CC2)c2ccccc21 | – | – | – |
| > 10 | > 10 | 2320 | > 10 | Cn1c(COc2ccc(Cl)cc2)c(CN2CCCCC2)c2ccccc21 | – | – | – |
| > 10 | > 10 | 440 | > 10 | Cn1c(COc2ccc(Cl)cc2)c(C(=O)C(=O)N2CCC(N3CCCCC3)CC2)c2ccccc21 | – | – | – |
| > 10 | > 10 | 559 | > 10 | Cn1c(COc2ccc(Cl)cc2)c(CN2CCC(N3CCCCC3)CC2)c2ccccc21 | – | – | – |
| > 10 | > 10 | 93 | > 10 | Cn1c(COc2ccc(Cl)cc2)c(CCN2CCC(N3CCCCC3)CC2)c2ccccc21 | – | – | – |
| > 10 | > 10 | 1260 | > 10 | Cn1c(COc2ccc(Cl)cc2Cl)c(CN2CCCCC2)c2ccccc21 | – | – | – |
| > 10 | > 10 | 2880 | > 10 | Cn1c(COc2ccc(Cl)cc2)c(CCN2CCCCC2)c2ccccc21 | – | – | – |
| > 10 | > 10 | – | > 10 | N=C(N)NCCC[C@@H](NC(=O)C(c1ccccc1)c1ccccc1)C(=O)NCc1ccc(O)cc1 | – | – | – |

| Structure (SMILES) | Ki [1] [µM] | Ki [2] [µM] | Ki [3] [nM] | Ki [4] [µM] | Ki [5] [nM] | ED50 (Mus musculus) [nM] | Ki (SK-N-MC) [nM] |
| --- | --- | --- | --- | --- | --- | --- | --- |
| O=C(CN1CCC(N2CCCCC2)CC1)c1c(COc2ccc(Cl)cc2)n(CCC[C@H]2CCCNC2)c2ccccc12 | > 10 | > 10 | 1.4 | > 10 | – | – | – |
| O=C(CN1CCC(N2CCCCC2)CC1)c1c(COc2ccc(Cl)cc2)n(CCC[C@@H]2CCCNC2)c2ccccc12 | > 10 | > 10 | 0.75 | > 10 | 1.8 | 17 | 3.2 |
| O=C(CN1CCC(N2CCCCC2)CC1)c1c(COc2ccc(Cl)cc2)n(CCC2CCNCC2)c2ccccc12 | > 10 | > 10 | 1.9 | > 10 | – | – | – |
